# Source: PubChem BioAssay AID248 (DTP/NCI, 2004)
# Toxic doses and inconclusive results are not listed.
# Tested on: L1210 leukemia ip in BDF1 mice, survival T/C
# Assay: NCI In Vivo Anticancer Drug Screen. Data for tumor model L1210 Leukemia (intraperitoneal) in B6D2F1 (BDF1) mice
# Conditions: endpoint: mean survival time, higher = longer survival
# Outline: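 Read-out is survival time, reported as the treated-group measurement over the vehicle-control measurement.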
# [1] = dose: 100.0 mg/kg/injection, schedule: Q01DX001 (ip), vehicle: saline
# [2] = dose: 200.0 mg/kg/injection, schedule: Q01DX001 (ip), vehicle: saline
# [3] = dose: 100.0 mg/kg/injection, schedule: Q01DX009 (ip), vehicle: Klucel (hydroxypropylcellulose) (HPC)
# [4] = dose: 100.0 mg/kg/injection, schedule: Q04DX003 (ip), vehicle: Klucel (hydroxypropylcellulose) (HPC)
# [5] = dose: 200.0 mg/kg/injection, schedule: Q01DX009 (ip), vehicle: Klucel (hydroxypropylcellulose) (HPC)
# [6] = dose: 200.0 mg/kg/injection, schedule: Q04DX003 (ip), vehicle: Klucel (hydroxypropylcellulose) (HPC)
# [7] = dose: 400.0 mg/kg/injection, schedule: Q01DX009 (ip), vehicle: Klucel (hydroxypropylcellulose) (HPC)
# [8] = dose: 400.0 mg/kg/injection, schedule: Q04DX003 (ip), vehicle: Klucel (hydroxypropylcellulose) (HPC)
# [9] = dose: 75.0 mg/kg/injection, schedule: Q01DX001 (ip), vehicle: saline
# [10] = dose: 400.0 mg/kg/injection, schedule: Q01DX001 (ip), vehicle: saline
# [11] = dose: 100.0 mg/kg/injection, schedule: Q01DX009 (ip), vehicle: saline with Tween-80
smiles,measurement,setting,value
COC(=O)c1[nH]cnc1/N=N/N(C)C,T/C,"dose: 6.75 mg/kg/injection, schedule: Q01DX009 (ip), vehicle: saline",119 % of control
same,T/C,"dose: 9.3 mg/kg/injection, schedule: Q01DX015 (ip), vehicle: saline",113 % of control
same,T/C,"dose: 11.25 mg/kg/injection, schedule: Q01DX Z (ip), vehicle: saline",124 % of control
same,T/C,"dose: 22.25 mg/kg/injection, schedule: Q04DX003 (ip), vehicle: saline",115 % of control
same,T/C,"dose: 27.0 mg/kg/injection, schedule: Q01DX009 (ip), vehicle: saline",150 % of control
same,T/C,"dose: 31.0 mg/kg/injection, schedule: Q01DX Z (ip), vehicle: saline",171 % of control
same,T/C,"dose: 44.5 mg/kg/injection, schedule: Q04DX003 (ip), vehicle: saline",120 % of control
same,T/C,"dose: 46.0 mg/kg/injection, schedule: Q01DX Z (ip), vehicle: saline",160 % of control
same,T/C,"dose: 54.0 mg/kg/injection, schedule: Q01DX015 (ip), vehicle: saline",164 % of control
same,T/C,"dose: 57.5 mg/kg/injection, schedule: Q01DX001 (ip), vehicle: saline",114 % of control
same,T/C,"dose: 62.0 mg/kg/injection, schedule: Q01DX Z (ip), vehicle: saline",121 % of control
same,T/C,"dose: 88.0 mg/kg/injection, schedule: Q01DX001 (ip), vehicle: saline",112 % of control
same,T/C,"dose: 88.8 mg/kg/injection, schedule: Q01DX001 (ip), vehicle: saline",124 % of control
same,T/C,"dose: 90.0 mg/kg/injection, schedule: Q01DX015 (ip), vehicle: saline",114 % of control
same,T/C,[1],124 % of control
same,T/C,"dose: 115.0 mg/kg/injection, schedule: Q01DX001 (ip), vehicle: saline",114 % of control
same,T/C,"dose: 133.0 mg/kg/injection, schedule: Q01DX001 (ip), vehicle: saline",115 % of control
same,T/C,[2],121 % of control
same,T/C,"dose: 231.0 mg/kg/injection, schedule: Q01DX001 (ip), vehicle: saline",123 % of control
COc1cc(C=Nc2ccc3c(c2)OCO3)ccc1OC(=O)c1ccccc1,T/C,"dose: 100.0 mg/kg/injection, schedule: Q04DX002 (ip), vehicle: saline with Tween-80",96 % of control
same,T/C,"dose: 200.0 mg/kg/injection, schedule: Q04DX002 (ip), vehicle: saline with Tween-80",100 % of control
same,T/C,"dose: 400.0 mg/kg/injection, schedule: Q04DX002 (ip), vehicle: saline with Tween-80",93 % of control
CC(=O)c1ccccc1I,T/C,[3],94 % of control
same,T/C,[4],100 % of control
same,T/C,[5],97 % of control
same,T/C,[6],94 % of control
same,T/C,[7],103 % of control
same,T/C,[8],95 % of control
C=C(C)C1(Cc2ccccc2)C(=O)NC(=O)NC1=O,T/C,[9],98 % of control
COc1ccc(C(=O)c2ccc3ccccc3c2)cc1,T/C,"dose: 100.0 mg/kg/injection, schedule: Q01DX001 (ip), vehicle: carboxymethylcellulose (CMC)",92 % of control
same,T/C,"dose: 200.0 mg/kg/injection, schedule: Q01DX001 (ip), vehicle: carboxymethylcellulose (CMC)",92 % of control
same,T/C,"dose: 400.0 mg/kg/injection, schedule: Q01DX001 (ip), vehicle: carboxymethylcellulose (CMC)",94 % of control
CCCCC1(CCC)C(=O)NC(=O)NC1=O,T/C,[9],102 % of control
same,T/C,"dose: 150.0 mg/kg/injection, schedule: Q01DX001 (ip), vehicle: saline",96 % of control
same,T/C,"dose: 300.0 mg/kg/injection, schedule: Q01DX001 (ip), vehicle: saline",95 % of control
Cc1c(CCNC=O)cc(C)c2c3c(oc12)CCCC3,T/C,"dose: 50.0 mg/kg/injection, schedule: Q01DX001 (ip), vehicle: saline",101 % of control
same,T/C,[1],104 % of control
same,T/C,[2],104 % of control
Cc1cc(C)c(C)c(OC(=O)Nc2cc(Cl)ccc2C)c1,T/C,[3],94 % of control
same,T/C,[5],94 % of control
same,T/C,[7],95 % of control
Cc1cccc(N2CCC3(CC2)C(=O)NC(=O)NC3=O)c1,T/C,[1],94 % of control
same,T/C,[2],97 % of control
same,T/C,[10],100 % of control
CCCCCCCCCCCCCCCC(=O)N(CCCN)C(C)CCCN(CC)CC (configuration not stated),T/C,"dose: 25.0 mg/kg/injection, schedule: Q01DX009 (ip), vehicle: saline with Tween-80",93 % of control
same,T/C,"dose: 50.0 mg/kg/injection, schedule: Q01DX009 (ip), vehicle: saline with Tween-80",86 % of control
same,T/C,[11],102 % of control
same,T/C,"dose: 100.0 mg/kg/injection, schedule: Q04DX003 (ip), vehicle: saline with Tween-80",97 % of control
same,T/C,"dose: 200.0 mg/kg/injection, schedule: Q04DX003 (ip), vehicle: saline with Tween-80",103 % of control
same,T/C,"dose: 400.0 mg/kg/injection, schedule: Q04DX003 (ip), vehicle: saline with Tween-80",100 % of control
c1ccc(C2C(c3ccccc3)N2C23CC4CC(CC(C4)C2)C3)cc1 (configuration not stated),T/C,[4],88 % of control
same,T/C,[6],94 % of control
CC1(C)C2CCC([CH2][Hg][Cl])C1C2 (configuration not stated),T/C,"dose: 6.25 mg/kg/injection, schedule: Q01DX009 (ip), vehicle: saline",93 % of control
same,T/C,"dose: 6.25 mg/kg/injection, schedule: Q04DX003 (ip), vehicle: other",103 % of control
same,T/C,"dose: 12.5 mg/kg/injection, schedule: Q01DX009 (ip), vehicle: saline",91 % of control
same,T/C,"dose: 12.5 mg/kg/injection, schedule: Q04DX003 (ip), vehicle: other",103 % of control
same,T/C,"dose: 20.0 mg/kg/injection, schedule: Q01DX001 (ip), vehicle: Klucel (hydroxypropylcellulose) (HPC)",102 % of control
same,T/C,"dose: 25.0 mg/kg/injection, schedule: Q01DX009 (ip), vehicle: saline",94 % of control
same,T/C,"dose: 25.0 mg/kg/injection, schedule: Q04DX003 (ip), vehicle: other",106 % of control
Cc1ccc(NC(=O)OCCSCCOC(=O)Nc2ccc(C)cc2)cc1,T/C,"dose: 100.0 mg/kg/injection, schedule: Q01DX009 (ip), vehicle: other",89 % of control
same,T/C,"dose: 200.0 mg/kg/injection, schedule: Q01DX009 (ip), vehicle: other",89 % of control
same,T/C,"dose: 400.0 mg/kg/injection, schedule: Q01DX009 (ip), vehicle: other",97 % of control
CCCCCCC(C)N(C)CCOC(=O)c1ccc([N+](=O)[O-])cc1 (configuration not stated),T/C,"dose: 75.0 mg/kg/injection, schedule: Q01DX001 (ip), vehicle: other",101 % of control
same,T/C,"dose: 150.0 mg/kg/injection, schedule: Q01DX001 (ip), vehicle: other",106 % of control
CCCCCCCCOC(=O)C1=NC=NC1=[N+]=[N-],T/C,"dose: 5.0 mg/kg/injection, schedule: Q01DX001 (ip), vehicle: other",107 % of control
same,T/C,"dose: 10.0 mg/kg/injection, schedule: Q01DX001 (ip), vehicle: other",110 % of control
same,T/C,"dose: 20.0 mg/kg/injection, schedule: Q01DX001 (ip), vehicle: other",104 % of control
same,T/C,"dose: 40.0 mg/kg/injection, schedule: Q01DX001 (ip), vehicle: other",101 % of control
c1ccc(C2CC3c4ccccc4C2c2cccc[n+]23)nc1 (configuration not stated),T/C,"dose: 100.0 mg/kg/injection, schedule: Q01DX001 (ip), vehicle: Klucel (hydroxypropylcellulose) (HPC)",101 % of control
same,T/C,"dose: 200.0 mg/kg/injection, schedule: Q01DX001 (ip), vehicle: Klucel (hydroxypropylcellulose) (HPC)",107 % of control
Cc1cc2cc(C)c3cccc(C)c3c2c2c(C)cccc12,T/C,[3],102 % of control
same,T/C,"dose: 100.0 mg/kg/injection, schedule: Q04DX003 (ip), vehicle: other",95 % of control
same,T/C,[5],106 % of control
same,T/C,"dose: 200.0 mg/kg/injection, schedule: Q04DX003 (ip), vehicle: other",97 % of control
same,T/C,[7],96 % of control
same,T/C,"dose: 400.0 mg/kg/injection, schedule: Q04DX003 (ip), vehicle: other",90 % of control
NC(=O)Nc1cccc2ccccc12,T/C,[3],97 % of control
same,T/C,[4],92 % of control
same,T/C,[5],97 % of control
same,T/C,[6],94 % of control
same,T/C,[7],103 % of control
same,T/C,[8],100 % of control
CN(Cc1cnc2nc(N)c(Br)c(N)c2n1)c1ccc(C(=O)NC(CCC(=O)O)C(=O)O)cc1 (configuration not stated),T/C,"dose: 100.0 mg/kg/injection, schedule: Q04DX002 (ip), vehicle: sodium bicarbonate",96 % of control
same,T/C,"dose: 200.0 mg/kg/injection, schedule: Q04DX002 (ip), vehicle: sodium bicarbonate",96 % of control
CCNc1nc(Cl)nc(-c2cn(-c3ccccc3)c3ccccc23)n1,T/C,[1],93 % of control
same,T/C,[11],101 % of control
same,T/C,"dose: 100.0 mg/kg/injection, schedule: Q04DX003 (ip), vehicle: saline",99 % of control
same,T/C,[2],90 % of control
same,T/C,"dose: 200.0 mg/kg/injection, schedule: Q01DX009 (ip), vehicle: saline with Tween-80",92 % of control
same,T/C,"dose: 200.0 mg/kg/injection, schedule: Q04DX003 (ip), vehicle: saline",92 % of control
same,T/C,[10],88 % of control
same,T/C,"dose: 400.0 mg/kg/injection, schedule: Q04DX003 (ip), vehicle: saline",94 % of control
